# Laboratory results: ChEMBL document CHEMBL3507680, “University of Dundee, Gates Library screen for HepG2 cell viability”
# Assay: Human HepG2 cell viability assay in 384 well format
# Format: toxicity, cell-based
# Parameters: dose 125 nL, time 70.5 hour; concentration not given beside the values
# Details: HepG2 cells, read-out: Inhibition
row,SMILES,cytotoxicity at 70.5 h [%]
1,Cc1cc(CN(C)C2CCCN(Cc3noc(C)n3)C2)no1 (stereo unspecified),7.31
2,Cc1cc2c(N3CCC(N(C)Cc4nccs4)CC3)ncnc2s1,9.35
3,Cn1c(N2CCOCC2)nc2cc(C(=O)N3CC(O)CO3)ccc21 (stereo unspecified),32.1
4,O=C(NCc1cccnc1)N1CCc2ncnc(C3CC3)c2CC1,5.6
5,Cc1cnn(CCNC(C)c2nnc(-c3cccc(Cl)c3)o2)c1 (stereo unspecified),-6.22
6,CCn1cnnc1CNC(=O)N(C)Cc1ccccc1OC,-4
7,CCn1ncnc1CN1CCc2[nH]cnc2C1c1ccccn1 (stereo unspecified),14.3
8,CC(=O)Nc1nc(C2CCN(C(C)=O)CC2)cs1,-22
9,NC(=O)C1(Cc2ccccc2-c2cncnc2)CCCNC1 (stereo unspecified),-10.3
10,CCCN(Cc1ccc(OC)nc1)Cc1ccccc1OC,12.5
11,N#CCc1ccc(OCC(=O)NS(=O)(=O)c2ccc(Cl)s2)cc1,-7.69
12,Cc1cnc(C(=O)N2CCCCC2c2[nH]ncc2S(C)(=O)=O)cn1 (stereo unspecified),3.44
13,Nc1cc(N2CCC(c3cc(Cc4ccccc4)n[nH]3)CC2)ccn1,2.05
14,COCC1CN(C(=O)c2ccnnc2)Cc2ncnn2C1 (stereo unspecified),-3.33
15,CN(C)CCO[C@@H]1CC[C@H]2[C@H]1OCCN2C(=O)c1ccnnc1,22.4
16,Cn1c(CN2CCC(OCc3cccnc3)CC2)cc2ccccc21,1.71
17,CN(C)c1nc2n(c(=O)n1)CCN2C(=O)Nc1cccc(Cl)c1,-9.23
18,COc1cccc(CC(C)NC(=O)NCCNC(C)=O)c1 (stereo unspecified),-1.81
19,NC(=O)C1CCN(Cn2nc(-c3ccccc3)oc2=O)CC1,-8.01
20,OCC(O)CN1CCc2onc(-c3ccc(C(F)(F)F)cc3)c2C1 (stereo unspecified),-8.17
21,O=S(=O)(c1cccnc1)N1C[C@@H]2COC[C@]2(COCC2CC2)C1,-3.67

row,SMILES,cytotoxicity at 70.5 h [%]
1,O=C(Nc1ccccc1)c1ccc(NCc2ccncc2)nn1,-5.4
2,O=C(Cn1cccn1)N1CCC(Cn2cc(-c3ccsc3)nn2)CC1,-10.6
3,Cn1nccc1C(=O)N1CCCC2(CCN(c3ccsc3)C2=O)C1 (stereo unspecified),10.3
4,CCN1CCCC1CNC(=O)c1cc(COc2cccc(F)c2)[nH]n1 (stereo unspecified),0.339
5,Cc1cc(N2CCCC(O)CC2)n2nc(C)c(C)c2n1 (stereo unspecified),1.18
6,Cc1nc(C)n(CC2CN(CC(=O)NC3CCCC3)CCO2)n1 (stereo unspecified),-7.31
7,Cc1ccc(C(=O)N2CCc3ncc(Cn4cccn4)n3CC2)cn1,-6.29
8,CC(c1nc(C2CC2)no1)N1CCN(Cc2noc(C3CC3)n2)CC1 (stereo unspecified),-2.08
9,O=C(NCc1c[nH]c(=O)[nH]c1=O)C1CCOc2ccccc2C1 (stereo unspecified),8.26
10,NC(=O)C1CCN(C(=O)NC2CCN(CC3CCCC3)C2)CC1 (stereo unspecified),9.67
11,c1cncc(OCC2CC3(CCN(CC4CC4)CC3)CO2)c1 (stereo unspecified),-10.5
12,COCCNc1nc2c(c(NCCc3cccs3)n1)CCNCC2,-2.67
13,COC(=O)C1CN(Cc2ccn(-c3ccc(F)cc3)n2)C[C@@H](C)O1 (stereo partly specified),21.2
14,CCOc1cc(C)nc(N2CCN(Cc3nccn3C)CC2)n1,-0.961
15,N#Cc1ccc(CN2CCCCC2Cn2cncn2)c(F)c1 (stereo unspecified),4.33
16,O=C(c1cscn1)N1CCc2ncnc(-c3ccncc3)c2CC1,-2.35
17,O=C(Cn1cc(I)cn1)N1CCCC1,-3.36
18,COc1ccc(Cl)cc1C(=O)NCCNc1cnccn1,-3.57
19,O=C1NCC2=C1C(c1ccc(O)cc1)Nc1ccccc1N2 (stereo unspecified),-6.66
20,c1cnc2c(c1)CN(C1CCOC1)CCN2CC1CC1 (stereo unspecified),-8.62
21,CC(C(=O)NCC(C)(C)c1ccc2c(c1)OCCO2)n1cncn1 (stereo unspecified),0.318

row,SMILES,cytotoxicity at 70.5 h [%]
1,CC(C)Cc1cc(C(=O)NC(C)(C)c2nnc(N)s2)n(C)n1,-6.76
2,CN1CCN(C(=O)N2C[C@H]3CC[C@@H]2CN(Cc2ccccc2)C3)CC1,-18.1
3,CC(=O)c1ccc(S(=O)(=O)NCC2CCN(c3cnccn3)CC2)cc1,-4.91
4,Cc1n[nH]c(C)c1CC(=O)N1CCC(O)(CN2CCOCC2)C1 (stereo unspecified),-12.6
5,CC(=O)N(C)Cc1cccc(NC(=O)N(C)CCc2cccs2)c1,11.4
6,CC(C)n1cnc2c(-c3cccnc3)nc(C3CCNCC3)cc21,12
7,Cc1ccc(CN2CCC3(CC(C(=O)NC4CCC4)=NO3)C2)o1 (stereo unspecified),-14.5
8,c1ccc(N(CCn2cncn2)CC2CC2)cc1,-4.37
9,Cc1nc(N2CCN(C)CC2)ncc1C(=O)N1CC[C@](C)(O)[C@H](C)C1,-7.36
10,CCN1CCC2(CC1)CC(COC)N(Cc1csc(C)n1)C2 (stereo unspecified),-5.79
11,N#Cc1ccc(C(=O)N2CCCSCC2CN2CCCC2)cc1 (stereo unspecified),-5.18
12,Cc1cnn(CC2CCCN2Cc2cc(=O)n3cccc(C)c3n2)c1 (stereo unspecified),-7.45
13,CC(C)NC(=O)C1CCc2nnc(CNC(=O)c3ccc(Cl)cc3Cl)n21 (stereo unspecified),1.45
14,NC(=O)C1CCCN1C1CCN(C(=O)c2cccc3c2OCO3)CC1 (stereo unspecified),-0.518
15,CN(C1CCCN(c2ccccn2)C1)S(=O)(=O)N1CCOCC1 (stereo unspecified),-2.35
16,CC(C)c1nc(C2CCCN2C(=O)c2ccc3nncn3c2)no1 (stereo unspecified),2.23
17,CN(C)[C@@H]1CCN(C(=O)c2ccccn2)[C@H]1Cc1cnn(C)c1,-5.7
18,Cn1cc(C[C@H]2[C@H](O)CCN2CC2CC2)cn1,6.74
19,COCC(=O)N1CCC(C(=O)c2cc(C)cnc2N)CC1,-1.24
20,CN1Cc2c(C(=O)NC3CCCCC3)ncn2-c2ccccc2S1(=O)=O,2.35
21,CCN1CCC2(CCN(Cc3nccs3)CC2)C1=O,0.565

row,SMILES,cytotoxicity at 70.5 h [%]
1,CCn1nc(C)c2nnn(CC(=O)Nc3cccc(Cl)c3)c(=O)c21,-5.39
2,CCc1ccc(O)c(C(=O)NC2CCN(Cc3ccncc3)CC2)c1,17.7
3,CCCc1nc(N2Cc3cnn(Cc4ccc(F)cc4)c3C2)no1,-12.8
4,Cc1ccc(C(=O)N2CCC(Oc3ccc(C)c(C)c3)CC2)c(=O)[nH]1,-2.32
5,COCC1CCN(C(=O)c2cc(-c3ccco3)nc3c(Cl)cccc23)C1 (stereo unspecified),-20.7
6,Cc1cccc(C(=O)Nc2ccc(OC3CCOCC3)c(C)c2)n1,15.2
7,Cc1c(C(=O)NCCC2CN(C)CCO2)n(C)c2c(C)cccc12 (stereo unspecified),-27
8,O=C(c1cc(Cl)ccc1F)N1CCCC1Cn1cccn1 (stereo unspecified),22.7
9,CN(C)C(=O)c1ccc2c(c1)N(C)C(CC(=O)NC(CO)CO)CO2 (stereo unspecified),-7.74
10,CN(Cc1nnc(C2CC2)n1C)C1CCN(Cc2ccc(F)cc2)C1 (stereo unspecified),-6.24
11,CO[C@H]1CNC[C@@H]1NC(=O)c1cc(C)nc2c(C)cc(C)cc12,2.49
12,N#Cc1ccc(OC2CCN(C(=O)Cc3cccs3)CC2)nc1,-0.57
13,CC(C)OCc1ncn2c1CN(CCO)CCC2,-0.995
14,COC(=O)[C@@H]1Cc2ncn(C)c2CN1S(=O)(=O)c1ccc(Cl)cc1,10.2
15,Cc1ccsc1CCNC(=O)CCC(=O)NC1CCCC1,-15.3
16,Cc1ccc(NC(=O)N(C)CC(O)COCCOC(C)C)c(Br)c1 (stereo unspecified),-4.27
17,COc1ccc(OC)c(C2CCN(C(=O)CCc3n[nH]c(N)n3)C2)c1 (stereo unspecified),12.4
18,CN1CCN(S(=O)(=O)c2cccc(F)c2)Cc2cccnc21,-2.06
